Experimental data as given in patent EP1200406B1, “CYCLIC AMIDES AND IMIDES HAVING SELECTIVE ANTAGONIST ACTIVITY AT ALPHA-1D ADRENERGIC RECEPTOR” (RECORDATI INDUSTRIA CHIMICA E FARMACEUTICA S.p.a., priority 1999, dated 2001).
Where two headings read alike, the source gives them in different places.

What was measured:
[1] = target: T1, human recombinant α1a adrenoceptor (Homo sapiens, UniProt P35348); experiment: Radioligand binding ([3H]prazosin) on membranes of CHO cells expressing cloned α1a adrenoceptor; conditions: read-out: Affinity (Ki) α1a
T1 construct: expressed in transfected cells; host or cells: CHO cells (membranes)
T1 sequence (P35348 1-466): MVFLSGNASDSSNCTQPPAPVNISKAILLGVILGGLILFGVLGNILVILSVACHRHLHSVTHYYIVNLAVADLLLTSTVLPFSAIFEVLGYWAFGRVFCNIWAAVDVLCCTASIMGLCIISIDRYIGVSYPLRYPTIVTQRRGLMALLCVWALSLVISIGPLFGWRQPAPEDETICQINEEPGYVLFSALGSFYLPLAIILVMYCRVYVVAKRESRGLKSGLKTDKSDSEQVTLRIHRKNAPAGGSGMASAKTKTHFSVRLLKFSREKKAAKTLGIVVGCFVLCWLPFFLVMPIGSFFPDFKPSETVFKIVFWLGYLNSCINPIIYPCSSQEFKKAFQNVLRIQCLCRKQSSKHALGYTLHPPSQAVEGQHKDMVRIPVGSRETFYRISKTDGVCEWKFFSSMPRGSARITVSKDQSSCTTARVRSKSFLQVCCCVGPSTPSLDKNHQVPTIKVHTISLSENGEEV
Method: (§1) The determination of affinity for cloned subtypes of human α1 adrenergic receptors was performed in membranes from CHO cells (chinese hamster ovary cells) transfected by electroporation with DNA expressing the genes encoding each α1-adrenoceptor subtype, namely α1a, α1b and α1d.. Cloning and stable expression of the human α1-adrenoceptor gene were performed as previously described (Testa et al., Pharmacol. Comm. 6, 79-86 (1995)). CHO cell membranes were incubated in […] Tris pH 7.4 with 0.2 nM [^3H]prazosin, in a final volume of 1.02 ml for 30 minutes at 25°C, in the absence or presence of competing drugs (1 pM-10 µM). Non-specific binding was determined in the presence of 10 µM phentolamine. Incubation was stopped by addition of ice-cold Tris buffer and rapid filtration through 0.2% polyethyleneimine pretreated Schleicher & Schuell GF52 filters. […] The HeLa cells were grown as monolayers in Dulbecco's modified Eagle's medium (DMEM), supplemented with 10% foetal calf serum and gentamicin (100 µg/ml), 5% CO2, at 37°C. The cells were detached from the growth flask at 95% confluence by a cell scraper and were lysed in ice-cold 5 mM Tris and 5-mM EDTA buffer (pH 7.4). The homogenates were centrifuged at 40000 x g x 20 minutes and the membranes were re-suspended in a small volume of ice-cold 5 mM Tris and 5-mM EDTA buffer (pH 7.4) and immediately frozen and stored at -70°C until use. On the experiment day, the cell membranes were re-suspended in a buffer containing 50 mM Tris (pH 7.4), 2.5 mM MgCl2, 10 µM pargyline (Fargin et al., Nature 335, 358-360 (1988)). […] The incubation was stopped by addition of ice-cold Tris buffer and rapid filtration through 0.2%-polyethyleneimine-pretreated Schleicher & Schuell filters. The inhibition of specific binding of the radioligands by the drugs was analysed to estimate the IC50 value by using the non-linear curve-fitting programme Allfit (De Lean et al., Am. J. Physiol. 235, E97-E102 (1978)). The IC50 value was converted to an affinity constant (Ki) by the equation of Cheng & Prusoff (Biochem. Pharmacol. 22, 3099-3108 (1973)). Data were expressed as mean of Ki.

[2] = target: T2, human recombinant α1d adrenoceptor (Homo sapiens, UniProt P25100); experiment: Radioligand binding ([3H]prazosin) on membranes of CHO cells expressing cloned α1d adrenoceptor; conditions: read-out: Affinity (Ki) α1d
T2 construct: expressed in transfected cells; host or cells: CHO cells (membranes)
T2 sequence (P25100 1-572): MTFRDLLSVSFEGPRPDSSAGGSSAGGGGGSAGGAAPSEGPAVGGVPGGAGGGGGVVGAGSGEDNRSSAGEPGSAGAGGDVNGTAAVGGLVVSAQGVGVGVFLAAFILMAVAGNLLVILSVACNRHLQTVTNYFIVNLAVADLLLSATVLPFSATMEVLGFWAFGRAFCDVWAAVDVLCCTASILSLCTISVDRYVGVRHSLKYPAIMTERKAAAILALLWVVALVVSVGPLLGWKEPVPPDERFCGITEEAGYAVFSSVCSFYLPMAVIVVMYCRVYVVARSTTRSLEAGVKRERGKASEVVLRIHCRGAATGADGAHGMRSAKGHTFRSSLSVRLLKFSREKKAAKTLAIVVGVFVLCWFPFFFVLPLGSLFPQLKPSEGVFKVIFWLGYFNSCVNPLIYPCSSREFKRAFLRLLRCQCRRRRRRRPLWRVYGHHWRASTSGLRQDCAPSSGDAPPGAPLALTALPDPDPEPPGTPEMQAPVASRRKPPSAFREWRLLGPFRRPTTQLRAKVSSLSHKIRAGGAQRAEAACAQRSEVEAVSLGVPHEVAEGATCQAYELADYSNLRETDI
Method: as §1

[3] = human cloned receptor, CHO cell membranes, 0.2 nM [3H]prazosin

O=C1CC2(CCCC2)CC(=O)N1CCN1CCN(c2cc(F)ccc2Cl)CC1 [Example 9, 8-{2-[4-(2-Chloro-5-fluorophenyl)-1-piperazinyl]-ethyl}-8-azaspiro[4.5]decane-7,9-dione]
Ki [1, 3]: 108 nM | Ki [2, 3]: 0.18 nM

CC(CN1CCN(c2cc(Cl)ccc2Cl)CC1)N1C(=O)CC2(CCCC2)CC1=O (stereo not shown) [Example 16, 8-{2-[4-(2,5-Dichlorophenyl)-1-piperazinyl]-1-methylethyl}-8-azaspiro[4.5]decane-7,9-dione]
Ki [1, 3]: 187 nM | Ki [2, 3]: 0.41 nM

O=C1CC2(CCCC2)CC(=O)N1CCN1CCN(c2cc(I)ccc2Cl)CC1 [Example 10, 8-{2-[4-(2-Chloro-5-iodophenyl)-1-piperazinyl]-ethyl}-8-azaspiro[4.5]decane-7,9-dione]
Ki [1, 3]: 479 nM | Ki [2, 3]: 15.3 nM

O=C1CC2(C=CN1CCN1CCN(c3cc(Cl)ccc3Cl)CC1)CCCC2 [Example 20, 8-{2-[4-(2,5-Dichlorophenyl)-1-piperazinyl]-ethyl}-8-azaspiro[4.5]dec-9,10-en-7-one]
Ki [1]: 27.2 nM | Ki [2]: 1.43 nM

O=C1CC2(CCC2)CC(=O)N1CCN1CCN(c2cc(Cl)ccc2Cl)CC1 [Example 15, 7-{2-[4-(2,5-Dichlorophenyl)-1-piperazinyl]-ethyl}-7-azaspiro[3.5]nonane-6,8-dione]
Ki [1, 3]: 120 nM | Ki [2, 3]: 2.65 nM

N#Cc1ccc(Cl)cc1N1CCN(CCN2C(=O)CC3(CCCC3)CC2=O)CC1 [Example 8, 8-{2-[4-(5-Chloro-2-cyanophenyl)-1-piperazinyl]-ethyl}-8-azaspiro[4.5]decane-7,9-dione]
Ki [1, 3]: 503 nM | Ki [2, 3]: 0.2 nM

O=C1CC2(CCCC2)CC(=O)N1CCN1CCN(c2cc(Br)ccc2Br)CC1 [Example 7, 8-{2-[4-(2,5-Dibromophenyl)-1-piperazinyl]-ethyl}-8-azaspiro[4.5]decane-7,9-dione]
Ki [1, 3]: 114 nM | Ki [2, 3]: 3.72 nM

CN(CCN1C(=O)CC2(CCCC2)CC1=O)CCN(C)c1cc(Cl)ccc1Cl [Example 18, N-(2,5-Dichlorophenyl)-N'-{2-(7,9-dioxo-8-azaspiro[4.5]decane-8-yl)-ethyl}-N,N'-dimethyl-1,2-diaminoethane]
Ki [1, 3]: 786 nM | Ki [2, 3]: 16.4 nM

O=C1CC2(CCCC2)CCN1CCN1CCN(c2cc(F)c(F)cc2F)CC1 [Example 24, 8-{2-[4-(2,4,5-Trifluorophenyl)-1-piperazinyl]-ethyl}-8-azaspiro[4.5]decane-7-one]
Ki [1, 3]: 706 nM | Ki [2, 3]: 0.31 nM

O=C1CC2(CCCC2)CC(=O)N1CCN1CCC(c2cc(Cl)ccc2Cl)CC1 [Example 17, 8-{2-[4-(2,5-Dichlorophenyl)-1-piperidinyl]-ethyl}-8-azaspiro[4.5]decane-7,9-dione]
Ki [1, 3]: 119 nM | Ki [2, 3]: 1.5 nM

O=C1CC2(CCCCC2)CC(=O)N1CCN1CCN(c2cc(Cl)ccc2Cl)CC1 [Example 11, 3-{2-[4-(2,5-Dichlorophenyl)-1-piperazinyl]-ethyl}-3-azaspiro[5.5]undecane-2,4-dione]
Ki [1, 3]: 331 nM | Ki [2, 3]: 2.21 nM

Cc1ccc(F)c(N2CCN(CCN3C(=O)CC4(CCCC4)CC3=O)CC2)c1 [Example 4, 8-{2-[4-(2-Fluoro-5-methylphenyl)-1-piperazinyl]-ethyl}-8-azaspiro[4.5]decane-7,9-dione]
Ki [1, 3]: > 1000 nM | Ki [2, 3]: 2.38 nM

O=C1CC2(CCCC2)C(=O)N1CCN1CCN(c2cc(Cl)ccc2Cl)CC1 [Example 14, 2-{2-[4-(2,5-Dichlorophenyl)-1-piperazinyl]-ethyl}-2-azaspiro[4.4]nonane-1,3-dione]
Ki [1, 3]: 68.3 nM | Ki [2, 3]: 3.11 nM

CCC1(C)CC(=O)N(CCN2CCN(c3cc(Cl)ccc3Cl)CC2)C(=O)C1 [Example 13, 1-{2-[4-(2,5-Dichlorophenyl)-1-piperazinyl]-ethyl}-4-ethyl-4-methylpiperidinyl-2,6-dione]
Ki [1, 3]: 59.8 nM | Ki [2, 3]: 1.23 nM

Cc1ccc(C)c(N2CCN(CCN3C(=O)CC4(CCCC4)CC3=O)CC2)c1 [Example 5, 8-{2-[4-(2,5-Dimethylphenyl)-1-piperazinyl]-ethyl}-8-azaspiro[4.5]decane-7,9-dione]
Ki [1, 3]: 119 nM | Ki [2, 3]: 10.1 nM

O=C1CC2(CCCC2)CC(=O)N1CCN1CCN(c2cc(C(F)(F)F)ccc2F)CC1 [Example 6, 8-{2-[4-(2-Fluoro-5-trifluoromethylphenyl)-1-piperazinyl]-ethyl}-8-azaspiro[4.5]decane-7,9-dione]
Ki [1, 3]: > 1000 nM | Ki [2, 3]: 7.56 nM

O=C1CCCC(=O)N1CCN1CCN(c2cc(Cl)ccc2Cl)CC1 [Example 2, 1-{2-[4-(2,5-Dichlorophenyl)-1-piperazinyl]-ethyl}-piperidinyl-2,6-dione]
Ki [1, 3]: 77.9 nM | Ki [2]: 3.25 nM
